Results published in US11660338B2, “Particles comprising a shell with RNA” (BIONTECH SE, priority 2013, dated 2023).

Test system: Vγ9Vδ2 T cells
Conditions: 7-day co-culture, 5 μM ZA, 10 U/mL IL-2; mean of two donors

O=P(O)(O)C(O)(Cn1ccnc1)P(=O)(O)O [zoledronic acid]
expansion rate of Vγ9δ2 T cells: about 15 fold
